Molecular target: OXE receptor (Felis catus, UniProt A0ABI7XKF2)
Assay: actin polymerization
Type: cell-based

Chain of OXE receptor (A0ABI7XKF2 1-379): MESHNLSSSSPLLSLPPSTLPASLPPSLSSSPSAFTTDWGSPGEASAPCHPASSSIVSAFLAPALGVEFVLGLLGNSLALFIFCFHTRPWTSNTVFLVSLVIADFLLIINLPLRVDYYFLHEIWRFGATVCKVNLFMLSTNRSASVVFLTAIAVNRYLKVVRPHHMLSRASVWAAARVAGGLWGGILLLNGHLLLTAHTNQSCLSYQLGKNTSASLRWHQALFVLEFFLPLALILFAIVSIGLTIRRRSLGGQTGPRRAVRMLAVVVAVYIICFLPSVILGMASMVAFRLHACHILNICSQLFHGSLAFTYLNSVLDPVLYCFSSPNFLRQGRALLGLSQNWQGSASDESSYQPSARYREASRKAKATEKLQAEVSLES

CCCCC/C=C\C/C=C\C/C=C\C=C\C(=O)CCCC(=O)O [5-oxo-ETE, 5-oxo-6E,8Z,11Z,14Z-eicosatetraenoic acid]
EC50: 0.72 nM

— paper PMC4830392 (Biochemical pharmacology, 2015)
